pIC50: −log10 of the molar value.
Columns and labels:
[1] = tested on: platelets (platelet-rich plasma), agglutination induced by collagen; experiment: Inhibition of platelet agglutination induced by collagen (rat PRP, aggligometer); type: cell-based; settings: 37° C., collagen 0.14 mg/ml, from inhibition ratio for maximum thrombotic agglutination
Protocol: (§1) Blood was collected from the abdominal aorta of a sacrificed rat. The obtained blood was then mixed with a solution of 3.9% sodium citrate at a ratio of one part by volume of sodium citrate solution to nine parts by volume of the blood. The mixture was […] at 116×g for 10 minutes to give a platelet-rich plasma (PRP). The supernatant was further centrifuged at 1,638×g for 10 minutes to give a platelet-poor plasma (PPP). The PRP was diluted with the PPP so as to give a platelet concentration of […].
(§2) The agglutination of platelets was determined with an aggligometer (RINKADENKI HUSM type). Sample solutions of 25 μl were obtained by dissolving each test compound in methanol and adding the resulting solution to a physiological saline solution so as to give a final methanol concentration of 1%. These sample solutions were then added to 225 μl of PRP preliminarily maintained at 37° C. while stirring at 800 rpm. Three minutes thereafter, 50 μl of an agglutination inducer was added thereto while continuously stirring.
Collagen, when employed as the agglutination inducer, was added at a concentration of 0.14 mg/ml. The 50% inhibition concentration of each test compound was calculated from the inhibition ratio thereof for the maximum thrombotic agglutination.

[2] = tested on: platelets (platelet-rich plasma), agglutination induced by arachidonic acid; experiment: Inhibition of platelet agglutination induced by arachidonic acid (rat PRP, aggligometer); type: cell-based; settings: 37° C., arachidonic acid 1 mM, 50% effective concentration from onset time of agglutination vs control group
Protocol: as §1, §2
Arachidonic acid, when employed as the agglutination inducer, was added at a concentration of 1 mM. The 50% effective concentration of each test compound was calculated by comparing the onset time from the addition of the arachidonic acid to the initiation of the agglutination with that of the control group.

Structure (SMILES) | pIC50 [1] | pIC50 [2]
CCCC=CC(=O)NCCSSCCNC(=O)C=CCCC [Compound 2, [SCH2 CH2 NH--COCH=CH(CH2)2 CH3]2] | 5.40 | 5.17
CCCCC=CC(=O)NCCSSCCNC(=O)C=CCCCC [Compound 3, [SCH2 CH2 NH--COCH=CH(CH2)3 CH3]2] | 4.59 | 4.77
CCCCCC=CC(=O)NCCSSCCNC(=O)C=CCCCCC [Compound 4, [SCH2 CH2 NH--COCH=CH(CH2)4 CH3]2] | 3.54 | 3.87
CCC=CC(=O)NCCSSCCNC(=O)C=CCC [Compound 1, [SCH2 CH2 NH--COCH=CHCH2 CH3]2] | 4.82 | 4.89
